Assay results taken from ChEMBL document CHEMBL5050850, “Compositions and methods of using the same for treatment of neurodegenerative and mitochondrial disease” (2020).

Experiments:
[1] = Induction of mitophagy in human HeLa MKYP cells treated with FCCP/oligomycin for 6 hrs and measured by FACS analysis; type: functional, cell-based
HeLa [2] = experiment: Cytotoxicity against human HeLa MKYP cells assessed as percentage of DAPI-positive cells at 50 uM and measured by DAPI staining method; type: toxicity, cell-based
HeLa [3] = experiment: Cytotoxicity against human HeLa MKYP cells assessed as cell death at 25 uM treated with FCCP/oliogmycin and measured DAPI staining method assay relative to control; type: toxicity, cell-based
HeLa [4] = experiment: Cytotoxicity against human HeLa MKYP cells assessed as cell death at 25 uM and measured DAPI staining method assay relative to control; type: toxicity, cell-based

SMILES	EC50 [1] [µM]	Activity (HeLa [2]) [%]	Activity (HeLa [3]) [%]	Activity (HeLa [4]) [%]
CC(=O)N1CCC(Nc2ncnc3[nH]c(C(F)(F)F)cc23)c2ccccc21 (stereo unspecified)	17.3	6.9	6.92	2.69
OC[C@H](Nc1ncnc2[nH]c(C(F)(F)F)cc12)c1ccccc1	14.7	30.4	–	–
CC(C)[C@@H](Nc1ncnc2[nH]c(C(F)(F)F)cc12)c1cncnc1	6.9	6.8	–	–
c1ccc2c(c1)CC[C@H]2Nc1ncnc2[nH]cnc12	> 50	10.3	–	–
Clc1cccc(CNc2ncnc3nc[nH]c23)c1	16	12.5	–	–
CCCCNc1ncnc2[nH]c(C3CC3)nc12	18.8	16.2	–	–
Fc1cccc(CNc2ncnc3[nH]c(C(F)(F)F)cc23)c1Cl	–	4.5	–	–
CO[C@H]1COc2ccccc2[C@H]1Nc1ncnc2[nH]c(C(F)(F)F)cc12	13.3	3.6	3.555	2.49
COc1cc(CNc2ncnc3[nH]c(C4CC4)nc23)ccn1	> 50	7.1	–	–
C[C@@H](Nc1ncnc2[nH]c(C(F)(F)F)cc12)c1cncnc1	21.6	22.9	–	–
C[C@@H](Nc1ncnc2[nH]cnc12)c1ccccc1	47.4	10.1	–	–
c1ncc(CNc2ncnc3[nH]cnc23)cn1	4.4	5.3	–	–
COc1ncc(CNc2ncnc3[nH]c(C(F)(F)F)cc23)cn1	10.6	5.8	–	–
CCC(Nc1ncnc2[nH]c(C(F)(F)F)cc12)c1cncnc1 (stereo unspecified)	18.8	15.9	–	–
Fc1cc(Cl)cc(CNc2ncnc3[nH]c(C(F)(F)F)cc23)c1	–	4.8	–	–
FC(F)(F)c1cc2c(NC3COCc4ccccc43)ncnc2[nH]1 (stereo unspecified)	> 50	42.9	–	–
COc1ccccc1CNc1ncnc2nc[nH]c12	10.8	12.4	–	–
CC(Nc1ncnc2[nH]c(C3CC3)nc12)c1ccccc1 (stereo unspecified)	6.3	18.3	–	–
FC(F)(F)c1cc2c(N[C@@H]3COc4ccccc43)ncnc2[nH]1	14.9	29.2	–	–
CN(C)C1CCC(CNc2ncnc3[nH]c(C(F)(F)F)cc23)CC1 (stereo unspecified)	> 50	5.2	–	–
CCCCNc1ncnc2[nH]c(C3CCC3)nc12	> 50	6.1	–	–

SMILES	EC50 [1] [µM]	Activity (HeLa [2]) [%]	Activity (HeLa [3]) [%]	Activity (HeLa [4]) [%]
Cc1nc2c(N[C@H](C)c3ccccc3)ncnc2[nH]1	> 50	9.7	–	–
CCCCNc1ncnc2[nH]c(C(F)(F)F)c(C)c12	> 50	11.9	–	–
c1ccc(C2(Nc3ncnc4[nH]cnc34)CC2)cc1	> 50	13.4	–	–
COc1ncccc1CNc1ncnc2[nH]c(C(F)(F)F)cc12	–	7.6	–	–
FC(F)(F)c1cc2c(NCc3cnccn3)ncnc2[nH]1	–	0.9	–	–
CCCCNc1ncnc2c1cc(C(F)(F)F)n2C(C)=O	> 50	36.6	–	–
c1ncc(CNc2ncnc3[nH]c(C4CC4)nc23)cn1	> 50	7.1	–	–
FC(F)(F)c1cc2c(NC3CCCc4ccccc43)ncnc2[nH]1 (racemic)	> 50	27.1	–	–
OC[C@@H](Nc1ncnc2[nH]cnc12)c1ccccc1	> 50	8.9	–	–
FC(F)(F)c1cc2c(NC3CCN(Cc4ccccc4)CC3)ncnc2[nH]1	21.4	43.9	–	–
c1coc(CNc2ncnc3[nH]cnc23)c1 [KINETIN]	–	4.9	–	–
C[C@H](Nc1ncnc2[nH]c(C(F)(F)F)cc12)c1cncnc1	3.1	23.7	–	–
FC(F)(F)c1cc2c(NCc3ccncn3)ncnc2[nH]1	–	1.5	–	–
O=S1(=O)Cc2ccccc2C(Nc2ncnc3[nH]c(C(F)(F)F)cc23)C1 (stereo unspecified)	> 50	13.2	–	–
FC(F)(F)c1cc2c(NCc3cncnc3)ncnc2[nH]1	11.7	1.7	–	–
FC(F)(F)c1cc2c(NCc3cccc(Cl)c3)ncnc2[nH]1	–	20.3	–	–
c1coc(CNc2ncnc3[nH]c(C4CCC4)nc23)c1	> 50	3	–	–
FC(F)(F)c1cc2c(NC3CCCc4ncncc43)ncnc2[nH]1 (stereo unspecified)	> 50	12	–	–
C[C@@H](Nc1nccc2[nH]cnc12)c1ccccc1	> 50	7.6	–	–
c1ccc2c(c1)OCC[C@H]2Nc1ncnc2[nH]cnc12	> 50	16	–	–
C[C@@H](Nc1ncnc2[nH]c(C3CC3)nc12)c1ccccc1	> 50	12.3	–	–

More lines, in order of falling EC50 [1], values ahead:

EC50 [1] [µM]	SMILES	Activity (HeLa [2]) [%]	Activity (HeLa [3]) [%]	Activity (HeLa [4]) [%]
6.3	CO[C@@H]1COc2ccccc2[C@H]1Nc1ncnc2[nH]c(C(F)(F)F)cc12	10.6	10.645	2.61
6.1	c1ccc2c(c1)OCC2Nc1ncnc2[nH]cnc12 (stereo unspecified)	21	–	–
5.6	FC(F)(F)c1cc2c(N[C@H]3CCOc4ccccc43)ncnc2[nH]1	37.7	–	–
4.6	Cc1nc2c(N[C@@H](C)c3ccccc3)ncnc2[nH]1	31.9	–	–
4.4	OC[C@@H](Nc1ncnc2[nH]c(C(F)(F)F)cc12)c1ccccc1	30.3	–	–
4.38	c1ccc2c(c1)CC[C@@H]2Nc1ncnc2[nH]cnc12	16.2	–	–
4	COc1ccc2c(c1)[C@@H](Nc1ncnc3[nH]c(C(F)(F)F)cc13)CCC2	3.2	3.18	1.18
3.6	CC(CNc1ncnc2[nH]cnc12)c1ccccc1 (stereo unspecified)	28.9	–	–
3.48	OC[C@H](Nc1ncnc2[nH]cnc12)c1ccccc1	14.5	–	–
3.24	FC(F)(F)c1cc2c(NC3CCOc4ccccc43)ncnc2[nH]1 (stereo unspecified)	22.3	–	–
3.17	C[C@H](Nc1ncnc2[nH]c(C3CC3)nc12)c1ccccc1	27.6	–	–
3.1	C[C@@H](Nc1ncnc2[nH]c(C(F)(F)F)cc12)c1ccccc1	63.7	–	–
2.69	CC(Nc1ncnc2[nH]cnc12)c1ccccc1 (stereo unspecified)	18.2	–	–
2.26	c1ccc(CCNc2ncnc3[nH]cnc23)cc1	19.7	–	–
2.08	COc1ccc(CNc2ncnc3[nH]c(C(F)(F)F)cc23)c(OC)c1	42.6	–	–
2	C[C@H](Nc1ncnc2[nH]cnc12)c1ccccc1	11.7	–	–
2	COc1ccccc1CNc1ncnc2[nH]c(C(F)(F)F)cc12	24.7	–	–
1.98	c1ccc2c(c1)OCC[C@H]2Nc1ncnc2[nH]c(C3CC3)cc12	17.3	17.3	7.26
1.81	CN1CCC(Nc2ncnc3[nH]c(C(F)(F)F)cc23)c2ccccc21 (stereo unspecified)	28.1	–	–
1.69	c1ccc2c(c1)OCC[C@@H]2Nc1ncnc2[nH]cnc12	17	–	–
1.4	FC(F)(F)c1cc2c(N[C@H]3COc4ccccc43)ncnc2[nH]1	22.8	–	–
0.02	C[C@H](Nc1ncnc2[nH]c(C(F)(F)F)cc12)c1ccccc1	90.8	–	–
